Assay results published in patent US12679848B2, “Plasma kallikrein inhibitors” (Merck Sharp & Dohme LLC, priority 2020, dated 2026).

What was measured:
human factor XIa = human factor XIa (Homo sapiens, UniProt P03951); test: Factor XIa Assay; format: biochemical; settings: human factor XIa 0.04 nM, substrate GPR-AFC, 30 min pre-incubation, 25° C., pH 7.4; read-out: FXIa IC50
Protocol: (§1) The effectiveness of a compound of the present invention as an inhibitor of Coagulation factor XIa can be determined using a relevant purified serine protease, and an appropriate synthetic substrate. The rate of hydrolysis of the chromogenic or fluorogenic substrate by the relevant serine protease was measured both in the absence and presence of compounds of the present invention. Assays were conducted at rt or at 37° C. […] A decrease in the rate of fluorescence change in the presence of inhibitor is indicative of enzyme inhibition. Such methods are known to one skilled in the art. The results of this assay are expressed as the half-maximal inhibitory concentrations (IC50), or the inhibitory constant, Ki.
Compounds were pre-incubated for 30 min at 25° C. with human (0.04 nM) factor XIa in 50 mM HEPES buffer with 150 mM sodium chloride, 5 mM calcium chloride, 0.1% PEG 8000, pH 7.4. factor XIa enzymatic activity was determined by addition of the substrate glycine-proline-arginine-7-amido-4-trifluoromethylcoumarin (GPR-AFC) and measurement of the fluorescence at 400/505 nm after a 60 min incubation at 25° C. The % inhibition for each data point was calculated from the data and analyzed using the log (inhibitor) vs. response four parameters equation to determine the half-maximal inhibitory concentrations (IC50). The IC50 were converted to equilibrium inhibitory constants (Ki) using the Cheng-Prusoff equation.

Human plasma kallikrein = molecular target: T1, Human plasma kallikrein (Homo sapiens, UniProt P03952); test: Plasma Kallikrein Assay; format: biochemical; settings: purified Human plasma kallikrein 0.5 nM, substrate Acetyl-K-P-R-AFC, HEPES pH 7.4; read-out: PKal IC50
T1 construct: yields a heavy chain (371 amino acids) and a light chain (248 amino acids); The active site of plasma kallikrein is contained in the light chain; purchased Enzyme Research Laboratories
T1 sequence (P03952 391-638 limits assumed): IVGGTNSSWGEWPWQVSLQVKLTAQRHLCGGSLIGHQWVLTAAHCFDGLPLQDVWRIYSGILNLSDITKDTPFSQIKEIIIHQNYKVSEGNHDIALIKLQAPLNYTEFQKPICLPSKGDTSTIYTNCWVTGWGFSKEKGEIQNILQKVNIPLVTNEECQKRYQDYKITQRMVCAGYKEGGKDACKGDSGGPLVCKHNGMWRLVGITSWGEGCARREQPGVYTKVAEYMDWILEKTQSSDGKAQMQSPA
T1 sequence (P03952 20-390 partner limits assumed): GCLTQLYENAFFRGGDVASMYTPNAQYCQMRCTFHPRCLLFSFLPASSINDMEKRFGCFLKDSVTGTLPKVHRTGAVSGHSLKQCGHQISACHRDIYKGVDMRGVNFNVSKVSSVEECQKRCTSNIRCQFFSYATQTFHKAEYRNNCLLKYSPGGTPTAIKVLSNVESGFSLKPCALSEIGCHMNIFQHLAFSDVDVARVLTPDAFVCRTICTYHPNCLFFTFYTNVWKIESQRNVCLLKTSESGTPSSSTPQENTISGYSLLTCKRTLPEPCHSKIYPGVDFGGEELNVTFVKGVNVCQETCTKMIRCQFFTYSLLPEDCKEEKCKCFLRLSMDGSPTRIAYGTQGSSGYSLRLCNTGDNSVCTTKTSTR
Protocol: as §1, with “plasma kallikrein” for “Coagulation factor XIa”
Plasma kallikrein determinations were made in 50 mM HEPES buffer at pH 7.4 containing 150 mM NaCl, 5 mM CaCl2), and 0.1% PEG 8000 (polyethylene glycol; Fisher Scientific). Determinations were made using purified Human plasma kallikrein at a final concentration of 0.5 nM (Enzyme Research Laboratories) and the synthetic substrate, Acetyl-K—P—R-AFC (Sigma #C6608) at a concentration of […].
Times required to achieve equilibration between enzyme and inhibitor were determined in control experiments. […] IC50 was determined by inflection point from a four parameter logistic curve fit. Ki was calculated using the Cheng Prusoff equation, Ki=IC50/[…](1+([S]/Km)).

human factor XIa, sequence (P03951 388-625 limits assumed): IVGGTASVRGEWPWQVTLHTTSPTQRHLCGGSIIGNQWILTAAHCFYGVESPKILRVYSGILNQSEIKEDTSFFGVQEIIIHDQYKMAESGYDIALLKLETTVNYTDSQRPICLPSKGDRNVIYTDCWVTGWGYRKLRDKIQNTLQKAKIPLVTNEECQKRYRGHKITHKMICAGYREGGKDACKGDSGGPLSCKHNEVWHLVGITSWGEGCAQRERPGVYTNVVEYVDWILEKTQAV
human factor XIa, sequence (P03951 19-387 partner limits assumed): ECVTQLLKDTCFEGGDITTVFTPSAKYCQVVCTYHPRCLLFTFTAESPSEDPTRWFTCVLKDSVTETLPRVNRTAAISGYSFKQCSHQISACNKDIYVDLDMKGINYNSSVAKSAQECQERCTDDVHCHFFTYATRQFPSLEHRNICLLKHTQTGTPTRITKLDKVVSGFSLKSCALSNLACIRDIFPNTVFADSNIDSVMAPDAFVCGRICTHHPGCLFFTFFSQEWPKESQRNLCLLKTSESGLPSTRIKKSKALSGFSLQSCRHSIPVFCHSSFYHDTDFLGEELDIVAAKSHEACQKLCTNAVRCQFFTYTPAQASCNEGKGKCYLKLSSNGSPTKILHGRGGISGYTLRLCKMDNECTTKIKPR

| Compound | IC50 (human factor XIa) | IC50 (Human plasma kallikrein) |
| --- | --- | --- |
| Cc1noc(C)c1Cn1ncc(C(=O)N2CCC[C@@]3(C2)OC(=O)Nc2ccc(Cl)c(F)c23)c1N [Example 11, (R)-1'-(5-Amino-1-((3,5-dimethylisoxazol-4-yl)methyl)-1H-pyrazole-4-carbonyl)-6-chloro-5-fluorospiro[benzo[d][1,3]oxazine-4,3'-piperidin]-2(1H)-one] | 438 nM | 1.7 nM |
| Nc1c(C(=O)N2CCC[C@@]3(C2)OC(=O)Nc2ccc(Cl)c(F)c23)cnn1CC1CCOCC1 [Example 12, (R)-1'-(5-Amino-1-((tetrahydro-2H-pyran-4-yl)methyl)-1H-pyrazole-4-carbonyl)-6-chloro-5-fluorospiro[benzo[d][1,3]oxazine-4,3'-piperidin]-2(1H)-one] | 476 nM | 8.1 nM |
| Nc1c(C(=O)N2CCC[C@@]3(C2)OC(=O)Nc2ccc(Cl)c(F)c23)cnn1CC1CC1 [Example 13, (R)-1'-(5-Amino-1-(cyclopropylmethyl)-1H-pyrazole-4-carbonyl)-6-chloro-5-fluorospiro[benzo[d][1,3]oxazine-4,3'-piperidin]-2(1H)-one] | 582 nM | 7.2 nM |
| Nc1c(C(=O)N2CCC[C@@]3(C2)OC(=O)Nc2ccc(Cl)c(F)c23)cnn1CCN1CCOCC1 [Example 14, (R)-1'-(5-Amino-1-(2-morpholinoethyl)-1H-pyrazole-4-carbonyl)-6-chloro-5-fluorospiro[benzo[d][1,3]oxazine-4,3'-piperidin]-2(1H)-one] | 3180 nM | 42.8 nM |
| Nc1c(C(=O)N2CCC[C@@]3(C2)OC(=O)Nc2ccc(Cl)c(F)c23)cnn1CC(F)F [Example 15, (R)-1'-(5-Amino-1-(2,2-difluoroethyl)-1H-pyrazole-4-carbonyl)-6-chloro-5-fluorospiro[benzo[d][1,3]oxazine-4,3'-piperidin]-2(1H)-one] | 882 nM | 16.9 nM |
| Nc1c(C(=O)N2CCC[C@@]3(C2)OC(=O)Nc2ccc(Cl)c(F)c23)cnn1CCc1ccccc1 [Example 16, (R)-1'-(5-Amino-1-phenethyl-1H-pyrazole-4-carbonyl)-6-chloro-5-fluorospiro[benzo[d][1,3]oxazine-4,3'-piperidin]-2(1H)-one] | 441 nM | 4.1 nM |
| Nc1c(C(=O)N2CCC[C@@]3(C2)OC(=O)Nc2ccc(Cl)c(F)c23)cnn1C1CCOCC1 [Example 18, (R)-1'-(5-Amino-1-(tetrahydro-2H-pyran-4-y1)-1H-pyrazole-4-carbonyl)-6-chloro-5-fluorospiro[benzo[d][1,3]oxazine-4,3'-piperidin]-2(1H)-one] | 1650 nM | 39.1 nM |
| Nc1c(C(=O)N2CCC[C@@]3(C2)OC(=O)Nc2ccc(Cl)c(F)c23)cnn1C12CC(C1)C2 [Example 19, (R)-1'-(5-Amino-1-(bicyclo[1.1.1]pentan-1-y1)-1H-pyrazole-4-carbonyl)-6-chloro-5-fluorospiro[benzo[d][1,3]oxazine-4,3'-piperidin]-2(1H)-one] | 2940 nM | 28.9 nM |
| Nc1c(C(=O)N2CCC[C@@]3(C2)OC(=O)Nc2ccc(Cl)c(F)c23)cnn1CCOCC(F)(F)F [Example 20, (R)-1'-(5-Amino-1-(2-(2,2,2-trifluoroethoxy)ethyl)-1H-pyrazole-4-carbonyl)-6-chloro-5-fluorospiro[benzo[d][1,3]oxazine-4,3'-piperidin]-2(1H)-one] | 882 nM | 5.9 nM |
| CC(C)OCCn1ncc(C(=O)N2CCC[C@@]3(C2)OC(=O)Nc2ccc(Cl)c(F)c23)c1N [Example 21, (R)-1'-(5-Amino-1-(2-isopropoxyethyl)-1H-pyrazole-4-carbonyl)-6-chloro-5-fluorospiro[benzo[d][1,3]oxazine-4,3'-piperidin]-2(1H)-one] | 1100 nM | 12.6 nM |
| Nc1c(C(=O)N2CCC[C@@]3(C2)OC(=O)Nc2ccc(Cl)c(F)c23)cnn1C1CCCC1 [Example 22, (R)-1'-(5-Amino-1-cyclopenty1-1H-pyrazole-4-carbonyl)-6-chloro-5-fluorospiro[benzo[d][1,3]oxazine-4,3'-piperidin]-2(1H)-one] | 1120 nM | 15.3 nM |
| CC(C)(C)n1ncc(C(=O)N2CCC[C@@]3(C2)OC(=O)Nc2ccc(Cl)c(F)c23)c1N [Example 23, (R)-1'-(5-Amino-1-(tert-butyl)-1H-pyrazole-4-carbonyl)-6-chloro-5-fluorospiro[benzo[d][1,3]oxazine-4,3'-piperidin]-2(1H)-one] | 2250 nM | 13.5 nM |
| CCn1ncc(C(=O)N2CCC[C@@]3(C2)OC(=O)Nc2ccc(Cl)c(F)c23)c1N [Example 25, (R)-1'-(5-Amino-1-ethy1-1H-pyrazole-4-carbonyl)-6-chloro-5-fluorospiro[benzo[d][1,3]oxazine-4,3'-piperidin]-2(1H)-one] | 2000 nM | 24.8 nM |
| Nc1c(C(=O)N2CCC[C@@]3(C2)OC(=O)Nc2ccc(Cl)c(F)c23)cnn1CCC(F)(F)F [Example 27, (R)-1'-(5-Amino-1-(3,3,3-trifluoropropyl)-1H-pyrazole-4-carbonyl)-6-chloro-5-fluorospiro[benzo[d][1,3]oxazine-4,3'-piperidin]-2(1H)-one] | 699 nM | 18.8 nM |
| Nc1c(C(=O)N2CCC[C@@]3(C2)OC(=O)Nc2ccc(Cl)c(F)c23)cnn1CC1(F)CC1 [Example 29, (R)-1'-(5-Amino-1-((1-fluorocyclopropyl)methyl)-1H-pyrazole-4-carbonyl)-6-chloro-5-fluorospiro[benzo[d][1,3]oxazine-4,3'-piperidin]-2(1H)-one] | 705 nM | 7.9 nM |

Compounds with a lower IC50 (human factor XIa), results first:

| IC50 (human factor XIa) | IC50 (Human plasma kallikrein) | Compound |
| --- | --- | --- |
| 201 nM | 0.5 nM | Cc1ccc(Cn2ncc(C(=O)N3CCC[C@@]4(C3)OC(=O)Nc3ccc(Cl)c(F)c34)c2N)cc1 [Example 7, (R)-1'-(5-Amino-1-(4-methylbenzyl)-1H-pyrazole-4-carbonyl)-6-chloro-5-fluorospiro[benzo[d][1,3]oxazine-4,3'-piperidin]-2(1H)-one] |
| 252 nM | 0.9 nM | Nc1c(C(=O)N2CCC[C@@]3(C2)OC(=O)Nc2ccc(Cl)c(F)c23)cnn1Cc1cccc(F)c1 [Example 9, (R)-1'-(5-Amino-1-(3-fluorobenzyl)-1H-pyrazole-4-carbonyl)-6-chloro-5-fluorospiro[benzo[d][1,3]oxazine-4,3'-piperidin]-2(1H)-one] |
| 122 nM | 1.3 nM | CC1(C)CN(C(=O)c2cnn(Cc3ccccc3)c2N)C[C@]2(C1)OC(=O)Nc1ccc(Cl)c(F)c12 [Example 10, (R)-1'-(5-Amino-1-benzyl-1H-pyrazole-4-carbonyl)-6-chloro-5-fluoro-5',5'-dimethylspiro[benzo[d][1,3]oxazine-4,3'-piperidin]-2(1H)-one] |
| 328 nM | 8 nM | CC(C)Cn1ncc(C(=O)N2CCC[C@@]3(C2)OC(=O)Nc2ccc(Cl)c(F)c23)c1N [Example 17, (R)-1'-(5-Amino-1-isobutyl-1H-pyrazole-4-carbonyl)-6-chloro-5-fluorospiro[benzo[d][1,3]oxazine-4,3'-piperidin]-2(1H)-one] |
| 425 nM | 10.9 nM | COCCn1ncc(C(=O)N2CCC[C@@]3(C2)OC(=O)Nc2ccc(Cl)c(F)c23)c1N [Example 24, (R)-1'-(5-Amino-1-(2-methoxyethyl)-1H-pyrazole-4-carbonyl)-6-chloro-5-fluorospiro[benzo[d][1,3]oxazine-4,3'-piperidin]-2(1H)-one] |
| 352 nM | 8.3 nM | Nc1c(C(=O)N2CCC[C@@]3(C2)OC(=O)Nc2ccc(Cl)c(F)c23)cnn1CC1(C(F)(F)F)CC1 [Example 26, (R)-1'-(5-Amino-1-((1-(trifluoromethyl)cyclopropyl)methyl)-1H-pyrazole-4-carbonyl)-6-chloro-5-fluorospiro[benzo[d][1,3]oxazine-4,3'-piperidin]-2(1H)-one] |
| 112 nM | 2.9 nM | Nc1c(C(=O)N2CCC[C@@]3(C2)OC(=O)Nc2ccc(Cl)c(F)c23)cnn1C1(c2ccc(F)cc2)CC1 [Example 28, (R)-1'-(5-Amino-1-(1-(4-fluorophenyl)cyclopropyl)-1H-pyrazole-4-carbonyl)-6-chloro-5-fluorospiro[benzo[d][1,3]oxazine-4,3'-piperidin]-2(1H)-one] |
